# Assay results reported in US7407961B2, “Pyrazine derivatives and pharmaceutical use thereof” (Astellas Pharma Inc., priority 2003, dated 2008).
# Structures can show the parent of a compound that is named as a salt.
row,Structure (SMILES),melting point [°C]
1,"CC(C)n1cc(-c2nc(C(N)=O)c(N)nc2-c2ccccc2F)ccc1=O (hydrate or solvate) [Example 17, 3-Amino-5-(2-fluorophenyl)-6-(1-isopropyl-6-oxo-1,6-dihydro-3-pyridyl)-2-pyrazinecarboxamide]",251.7
2,"CCOC(=O)c1nc(-c2ccc(=O)[nH]c2)c(-c2ccccc2)nc1N [Example 8, Ethyl 3-amino-6-(6-oxo-1,6-dihydro-3-pyridyl)-5-phenyl-2-pyrazinecarboxylate]",230 to 238
3,"COc1ccc(-c2nc(C#N)c(N)nc2-c2ccccc2)cn1 [Example 1, 3-amino-6-(6-methoxy-3-pyridyl)-5-phenyl-2-pyrazinecarbonitrile]",201 to 205
4,"CC(C)n1cc(-c2nc(C(N)=O)c(N)nc2-c2ccccc2)ccc1=O [Example 6, 3-Amino-6-(1-isopropyl-6-oxo-1,6-dihydro-3-pyridyl)-5-phenyl-2-pyrazinecarboxamide]",240 to 245
5,"CC(C)n1cc(-c2nc(C(N)=O)c(N)nc2-c2cccc(Cl)c2)ccc1=O (hydrate or solvate) [Example 21, 3-Amino-5-(3-chlorophenyl)-6-(1-isopropyl-6-oxo-1,6-dihydro-3-pyridyl)-2-pyrazinecarboxamide]",232.6
6,"CC(C)OC(=O)c1nc(-c2ccc(=O)[nH]c2)c(-c2ccccc2)nc1N [Example 9, isopropyl 3-amino-6-(6-oxo-1,6-dihydro-3-pyridyl)-5-phenyl-2-pyrazinecarboxylate]",250 to 256
7,"COc1ccc(-c2nc(C(N)=O)c(N)nc2-c2ccccc2)cn1 (hydrate or solvate) [Example 15, 3-amino-6-(6-methoxy-3-pyridyl)-5-phenyl-2-pyrazinecarboxamide]",208 to 212
8,"CC(C)n1cc(-c2nc(C#N)c(N)nc2-c2ccccc2)ccc1=O [Example 14, 3-Amino-6-(1-isopropyl-6-oxo-1,6-dihydro-3-pyridyl)-5-phenyl-2-pyrazinecarbonitrile]",204.5
9,"N#Cc1nc(-c2ccc(=O)[nH]c2)c(-c2ccccc2)nc1N (hydrate or solvate) [Example 10, 3-amino-6-(6-oxo-1,6-dihydro-3-pyridyl)-5-phenyl-2-pyrazinecarbonitrile]",243 to 248
10,"CCCn1cc(-c2nc(C#N)c(N)nc2-c2ccccc2)ccc1=O [Example 13, 3-Amino-6-(6-oxo-1-propyl-1,6-dihydro-3-pyridyl)-5-phenyl-2-pyrazinecarbonitrile]",180 to 183
11,"Cn1cc(-c2nc(C#N)c(N)nc2-c2ccccc2)ccc1=O (as salt: Na) [Example 11, 3-amino-6-(1-methyl-6-oxo-1,6-dihydro-3-pyridyl)-5-phenyl-2-pyrazinecarbonitrile]",> 250
12,"CC(C)n1cc(-c2nc(C(N)=O)c(N)nc2-c2ccccc2)ccc1=O (hydrate or solvate) [Example 16, 3-amino-6-(1-isopropyl-6-oxo-1,6-dihydro-3-pyridyl)-5-phenyl-2-pyrazinecarboxamide]",245
13,"Cn1cc(-c2nc(C(N)=O)c(N)nc2-c2ccccc2)ccc1=O [Example 3, 3-amino-6-(1-methyl-6-oxo-1,6-dihydro-3-pyridyl)-5-phenyl-2-pyrazinecarboxamide]",> 250
14,"CC(C)n1cc(-c2nc(C(N)=O)c(N)nc2-c2ccc(Cl)cc2)ccc1=O (hydrate or solvate) [Example 22, 3-Amino-5-(4-chlorophenyl)-6-(1-isopropyl-6-oxo-1,6-dihydro-3-pyridyl)-2-pyrazinecarboxamide]",246.2
15,"NC(=O)c1nc(-c2ccc(=O)[nH]c2)c(-c2ccccc2)nc1N (hydrate or solvate) [Example 2, 3-amino-6-(6-oxo-1,6-dihydro-3-pyridyl)-5-phenyl-2-pyrazinecarboxamide]",215 to 220
16,"CC(C)n1cc(-c2nc(C(N)=O)c(N)nc2-c2cccc(F)c2)ccc1=O (hydrate or solvate) [Example 18, 3-Amino-5-(3-fluorophenyl)-6-(1-isopropyl-6-oxo-1,6-dihydro-3-pyridyl)-2-pyrazinecarboxamide]",258.8
17,"CCCn1cc(-c2nc(C(N)=O)c(N)nc2-c2ccccc2)ccc1=O [Example 5, 3-Amino-6-(6-oxo-1-propyl-1,6-dihydro-3-pyridyl)-5-phenyl-2-pyrazinecarboxamide]",> 250
18,"CC(C)n1cc(-c2nc(C(N)=O)c(N)nc2-c2ccc(F)cc2)ccc1=O (hydrate or solvate) [Example 19, 3-Amino-5-(4-fluorophenyl)-6-(1-isopropyl-6-oxo-1,6-dihydro-3-pyridyl)-2-pyrazinecarboxamide]",235.6
19,"CCn1cc(-c2nc(C#N)c(N)nc2-c2ccccc2)ccc1=O [Example 12, 3-Amino-6-(1-ethyl-6-oxo-1,6-dihydro-3-pyridyl)-5-phenyl-2-pyrazinecarbonitrile]",193 to 199

# Second part, the compound after the results:
row,melting point [°C],Structure (SMILES)
1,222.2,"CC(C)n1cc(-c2nc(C(=O)O)c(N)nc2-c2ccc(F)cc2)ccc1=O (hydrate or solvate) [Example 40, 3-amino-5-(4-fluorophenyl)-6-(1-isopropyl-6-oxo-1,6-dihydro-3-pyridyl)-2-pyrazinecarboxylic acid]"
2,248.8,"CC(C)n1cc(-c2nc(C(N)=O)c(N)nc2-c2cc(F)cc(F)c2)ccc1=O (hydrate or solvate) [Example 30, 3-Amino-5-(3,5-difluorophenyl)-6-(1-isopropyl-6-oxo-1,6-dihydro-3-pyridyl)-2-pyrazinecarboxamide]"
3,292,"CC(C)n1cc(-c2nc(C(N)=O)c(N)nc2-c2ccc(C#N)cc2)ccc1=O (hydrate or solvate) [Example 31, 3-Amino-5-(4-cyanophenyl)-6-(1-isopropyl-6-oxo-1,6-dihydro-3-pyridyl)-2-pyrazinecarboxamide]"
4,243.9,"COc1ccc(-c2nc(N)c(C#N)nc2-c2ccc(=O)n(C(C)C)c2)cc1 (hydrate or solvate) [Example 38, 3-Amino-6-(1-isopropyl-6-oxo-1,6-dihydro-3-pyridyl)-5-(4-methoxyphenyl)-2-pyrazinecarbonitrile]"
5,263.1,"COc1ccccc1-c1nc(N)c(C(N)=O)nc1-c1ccc(=O)n(C(C)C)c1 (hydrate or solvate) [Example 23, 3-Amino-6-(1-isopropyl-6-oxo-1,6-dihydro-3-pyridyl)-5-(2-methoxyphenyl)-2-pyrazinecarboxamide]"
6,265.5,"CC(C)n1cc(-c2nc(C(N)=O)c(N)nc2-c2cccc(OC(F)(F)F)c2)ccc1=O (hydrate or solvate) [Example 27, 3-Amino-6-(1-isopropyl-6-oxo-1,6-dihydro-3-pyridyl)-5-[3-(trifluoromethoxy)phenyl]-2-pyrazinecarboxamide]"
7,180,"CC(C)n1cc(-c2nc(C#N)c(N)nc2-c2ccc(F)c(F)c2)ccc1=O (hydrate or solvate) [Example 39, 3-Amino-5-(3,4-difluorophenyl)-6-(1-isopropyl-6-oxo-1,6-dihydro-3-pyridyl)-2-pyrazinecarbonitrile]"
8,192.3,"COc1cccc(-c2nc(N)c(C(N)=O)nc2-c2ccc(=O)n(C(C)C)c2)c1 (hydrate or solvate) [Example 24, 3-Amino-6-(1-isopropyl-6-oxo-1,6-dihydro-3-pyridyl)-5-(3-methoxyphenyl)-2-pyrazinecarboxamide]"
9,225.8,"CC(C)n1cc(-c2nc(C(N)=O)c(N)nc2-c2ccc(F)c(F)c2)ccc1=O (hydrate or solvate) [Example 29, 3-Amino-5-(3,4-difluorophenyl)-6-(1-isopropyl-6-oxo-1,6-dihydro-3-pyridyl)-2-pyrazinecarboxamide]"
10,210.6,"CC(C)n1cc(-c2nc(C#N)c(N)nc2-c2ccccc2F)ccc1=O (hydrate or solvate) [Example 33, 3-Amino-5-(2-fluorophenyl)-6-(1-isopropyl-6-oxo-1,6-dihydro-3-pyridyl)-2-pyrazinecarbonitrile]"
11,207,"CC(C)n1cc(-c2nc(C#N)c(N)nc2-c2ccc(F)cc2)ccc1=O (hydrate or solvate) [Example 35, 3-Amino-5-(4-fluorophenyl)-6-(1-isopropyl-6-oxo-1,6-dihydro-3-pyridyl)-2-pyrazinecarbonitrile]"
12,222.6,"COc1ccccc1-c1nc(N)c(C#N)nc1-c1ccc(=O)n(C(C)C)c1 (hydrate or solvate) [Example 36, 3-Amino-6-(1-isopropyl-6-oxo-1,6-dihydro-3-pyridyl)-5-(2-methoxyphenyl)-2-pyrazinecarbonitrile]"
13,210.6,"CC(C)n1cc(-c2nc(C#N)c(N)nc2-c2cccc(F)c2)ccc1=O (hydrate or solvate) [Example 34, 3-Amino-5-(3-fluorophenyl)-6-(1-isopropyl-6-oxo-1,6-dihydro-3-pyridyl)-2-pyrazinecarbonitrile]"
14,264,"CC(C)n1cc(-c2nc(C(N)=O)c(N)nc2-c2ccc(OC(F)(F)F)cc2)ccc1=O (hydrate or solvate) [Example 28, 3-Amino-6-(1-isopropyl-6-oxo-1,6-dihydro-3-pyridyl)-5-[4-(trifluoromethoxy)phenyl]-2-pyrazinecarboxamide]"
15,192.3,"COc1cccc(-c2nc(N)c(C#N)nc2-c2ccc(=O)n(C(C)C)c2)c1 (hydrate or solvate) [Example 37, 3-Amino-6-(1-isopropyl-6-oxo-1,6-dihydro-3-pyridyl)-5-(3-methoxyphenyl)-2-pyrazinecarbonitrile]"
16,205.4,"CC(C)n1cc(-c2nc(C#N)c(N)nc2-c2ccccc2)ccc1=O (as salt: Na) (hydrate or solvate) [Example 32, 3-Amino-6-(1-isopropyl-6-oxo-1,6-dihydro-3-pyridyl)-5-phenyl-2-pyrazinecarbonitrile]"
17,206.5,"CC(C)n1cc(-c2nc(C(N)=O)c(N)nc2-c2ccccc2OC(F)(F)F)ccc1=O (hydrate or solvate) [Example 26, 3-Amino-6-(1-isopropyl-6-oxo-1,6-dihydro-3-pyridyl)-5-[2-(trifluoromethoxy)phenyl]-2-pyrazinecarboxamide]"
